This is an account of results in ChEMBL document CHEMBL5291721, “A preclinical secondary pharmacology resource illuminates target-adverse drug reaction associations of marketed drugs” (Nat Commun, 2023).

In assay [1] the target is T1, Prostaglandin G/H synthase 1 (Rattus norvegicus, UniProt Q63921).
T1 sequence (Q63921 whole entry): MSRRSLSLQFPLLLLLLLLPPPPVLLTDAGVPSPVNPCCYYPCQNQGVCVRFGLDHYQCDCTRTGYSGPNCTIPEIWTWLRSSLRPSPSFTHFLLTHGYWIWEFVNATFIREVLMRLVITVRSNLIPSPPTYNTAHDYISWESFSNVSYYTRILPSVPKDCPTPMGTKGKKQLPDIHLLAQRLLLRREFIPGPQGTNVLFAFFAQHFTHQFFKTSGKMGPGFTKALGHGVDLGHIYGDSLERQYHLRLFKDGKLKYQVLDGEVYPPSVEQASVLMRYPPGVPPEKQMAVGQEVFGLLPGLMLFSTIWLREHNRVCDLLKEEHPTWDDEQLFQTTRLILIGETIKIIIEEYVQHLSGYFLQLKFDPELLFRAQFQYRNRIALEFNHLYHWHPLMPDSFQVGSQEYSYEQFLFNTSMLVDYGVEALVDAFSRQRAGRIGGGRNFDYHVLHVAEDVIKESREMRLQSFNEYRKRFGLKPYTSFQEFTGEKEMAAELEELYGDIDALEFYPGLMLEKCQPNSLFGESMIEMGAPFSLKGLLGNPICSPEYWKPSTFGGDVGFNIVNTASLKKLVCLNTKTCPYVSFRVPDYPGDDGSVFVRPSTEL
Format: functional.

Assay [2] addresses Sodium-dependent dopamine transporter (Homo sapiens, UniProt Q01959).
For assay [3], the target named is Gamma-aminobutyric acid receptor subunit alpha-1 (Rattus norvegicus, UniProt P62813).
Gamma-aminobutyric acid receptor subunit alpha-1, sequence (P62813 whole entry): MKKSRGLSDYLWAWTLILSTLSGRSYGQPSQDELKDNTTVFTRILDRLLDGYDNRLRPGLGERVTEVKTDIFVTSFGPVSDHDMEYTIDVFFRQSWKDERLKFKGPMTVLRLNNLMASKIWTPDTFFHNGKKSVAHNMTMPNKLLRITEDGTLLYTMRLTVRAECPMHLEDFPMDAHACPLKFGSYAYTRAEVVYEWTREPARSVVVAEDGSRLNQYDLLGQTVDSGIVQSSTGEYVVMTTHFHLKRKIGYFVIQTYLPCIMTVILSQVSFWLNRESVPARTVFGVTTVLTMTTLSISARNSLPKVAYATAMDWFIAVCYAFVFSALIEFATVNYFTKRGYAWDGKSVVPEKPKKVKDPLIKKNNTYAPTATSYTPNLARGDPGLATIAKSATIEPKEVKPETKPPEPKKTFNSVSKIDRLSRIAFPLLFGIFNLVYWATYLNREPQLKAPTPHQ
Assay [4] has as its target T2, B2 bradykinin receptor (Homo sapiens, UniProt P30411).
T2 sequence (P30411 whole entry): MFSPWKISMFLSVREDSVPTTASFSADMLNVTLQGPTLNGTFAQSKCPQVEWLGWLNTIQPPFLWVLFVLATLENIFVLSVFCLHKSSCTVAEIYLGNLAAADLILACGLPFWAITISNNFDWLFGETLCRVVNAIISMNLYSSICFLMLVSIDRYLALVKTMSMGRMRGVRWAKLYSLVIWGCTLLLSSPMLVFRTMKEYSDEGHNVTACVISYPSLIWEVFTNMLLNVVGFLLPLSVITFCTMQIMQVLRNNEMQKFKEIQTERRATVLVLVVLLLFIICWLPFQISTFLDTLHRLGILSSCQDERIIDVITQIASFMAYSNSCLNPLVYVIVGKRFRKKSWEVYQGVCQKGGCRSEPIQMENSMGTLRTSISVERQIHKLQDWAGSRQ

In assay [5] the target is T3, Glucocorticoid receptor (Homo sapiens, UniProt P04150).
T3 sequence (P04150 whole entry): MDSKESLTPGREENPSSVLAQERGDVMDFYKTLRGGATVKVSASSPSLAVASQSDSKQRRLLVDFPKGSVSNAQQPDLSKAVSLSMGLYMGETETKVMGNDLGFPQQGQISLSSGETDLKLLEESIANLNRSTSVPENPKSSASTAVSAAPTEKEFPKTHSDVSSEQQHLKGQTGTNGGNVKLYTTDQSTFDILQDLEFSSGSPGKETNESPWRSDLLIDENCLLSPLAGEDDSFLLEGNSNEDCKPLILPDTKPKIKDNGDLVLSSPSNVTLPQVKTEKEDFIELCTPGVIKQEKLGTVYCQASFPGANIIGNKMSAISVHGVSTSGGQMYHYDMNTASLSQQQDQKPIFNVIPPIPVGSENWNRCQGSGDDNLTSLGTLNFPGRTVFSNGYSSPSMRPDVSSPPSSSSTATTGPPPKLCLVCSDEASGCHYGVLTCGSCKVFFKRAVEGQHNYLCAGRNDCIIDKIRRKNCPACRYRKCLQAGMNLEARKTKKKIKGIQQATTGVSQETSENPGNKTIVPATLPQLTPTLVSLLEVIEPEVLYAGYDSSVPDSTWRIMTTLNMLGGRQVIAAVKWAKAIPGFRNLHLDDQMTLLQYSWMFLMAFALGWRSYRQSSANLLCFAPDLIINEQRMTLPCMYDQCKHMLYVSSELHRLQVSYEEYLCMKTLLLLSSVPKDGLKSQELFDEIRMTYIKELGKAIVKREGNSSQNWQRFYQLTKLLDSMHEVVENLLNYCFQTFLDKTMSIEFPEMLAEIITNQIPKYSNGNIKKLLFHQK
Further: assay procedure not described here.

Sodium-dependent dopamine transporter, sequence (Q01959 whole entry): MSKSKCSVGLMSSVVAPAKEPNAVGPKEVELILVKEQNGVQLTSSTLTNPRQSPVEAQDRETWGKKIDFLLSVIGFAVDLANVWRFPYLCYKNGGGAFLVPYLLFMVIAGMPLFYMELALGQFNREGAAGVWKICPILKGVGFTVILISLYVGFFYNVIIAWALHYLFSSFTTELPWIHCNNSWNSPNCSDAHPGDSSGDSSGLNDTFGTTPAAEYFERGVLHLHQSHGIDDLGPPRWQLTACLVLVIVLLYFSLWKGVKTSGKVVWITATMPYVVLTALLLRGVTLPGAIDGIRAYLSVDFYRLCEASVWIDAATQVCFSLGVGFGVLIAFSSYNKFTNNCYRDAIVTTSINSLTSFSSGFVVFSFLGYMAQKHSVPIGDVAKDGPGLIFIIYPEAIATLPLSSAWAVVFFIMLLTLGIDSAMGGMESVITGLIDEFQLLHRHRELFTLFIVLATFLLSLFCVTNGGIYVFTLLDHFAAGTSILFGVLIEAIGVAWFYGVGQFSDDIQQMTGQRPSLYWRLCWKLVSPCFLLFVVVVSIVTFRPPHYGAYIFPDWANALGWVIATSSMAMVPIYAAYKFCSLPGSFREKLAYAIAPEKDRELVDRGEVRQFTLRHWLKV

By AC50 is commonly meant the concentration giving half of the maximal activity seen. Read a low AC50 as greater potency. On to `CC(=N)N1CC[C@H](SC2=C(C(=O)O)N3C(=O)[C@H]([C@@H](C)O)[C@H]3C2)C1`, for which the AC50 in assay [1] amounted to 5.1 µM; in assay [2], 270 µM.
Turning to `CC(/C=C1\SC(=S)N(CC(=O)O)C1=O)=C\c1ccccc1`, the AC50 in assay [1] was above 30 µM; in assay [2], 20 µM; in assay [3], above 30 µM; in assay [4], above 10 µM.
Turning to `CC1(C)S[C@@H]2[C@H](NC(=O)[C@H](N)c3ccc(O)cc3)C(=O)N2[C@H]1C(=O)O` [AMOXICILLIN], the AC50 in assay [1], in assay [2], in assay [3] and in assay [4] was above 30 µM in each case.
Consider `O=C1CN2Cc3c(ccc(Cl)c3Cl)N=C2N1` [ANAGRELIDE], for which the AC50 in assay [1] was above 30 µM; in assay [5], above 30 µM; in assay [2], above 30 µM; in assay [3] it was above 10 µM; in assay [4] it was above 30 µM.
Regarding `CNCC[C@@H](Oc1ccccc1C)c1ccccc1` [ATOMOXETINE], the AC50 in assay [1], in assay [5] and in assay [4] was above 30 µM each time.
As to `CCc1oc2ccccc2c1C(=O)c1cc(Br)c(O)c(Br)c1` [BENZBROMARONE], the AC50 in assay [1] is above 30 µM; in assay [5], 11 µM; in assay [2], 26 µM; in assay [3], above 10 µM; in assay [4], above 30 µM.
For `C=C(C)[C@@H]1CCC(C)=C[C@H]1c1c(O)cc(CCCCC)cc1O` [CANNABIDIOL], the results for the AC50 in assay [1] and in assay [2] were 0.771 µM and 28 µM, respectively.
For `CO/N=C(\C(=O)N[C@@H]1C(=O)N2C(C(=O)O)=C(COC(N)=O)CS[C@H]12)c1ccco1` [CEFUROXIME], the AC50 in assay [1], in assay [5], in assay [2] and in assay [4] was above 30 µM each time.
In the case of `[H]/N=C(\N/C(=N/[H])NCCCCCCNC(=N)NC(=N)Nc1ccc(Cl)cc1)Nc1ccc(Cl)cc1` [CHLORHEXIDINE], the AC50 is above 10 µM in assay [1], above 30 µM in assay [5], 3 µM in assay [2] and above 10 µM in assay [3].
On to `Clc1cccc(Cl)c1N=C1NCCN1` [CLONIDINE], for which the AC50 in assay [1] was above 30 µM; in assay [5], above 30 µM; in assay [2] it was above 10 µM; in assay [3], above 10 µM; in assay [4], above 30 µM.
For the compound `COC(=O)[C@H](c1ccccc1Cl)N1CCc2sccc2C1` [CLOPIDOGREL], the AC50 in assay [1], in assay [5], in assay [2], in assay [3] and in assay [4] was above 30 µM each time.
For the compound `CN1C[C@H](C(=O)N[C@]2(C)O[C@@]3(O)[C@@H]4CCCN4C(=O)[C@H](Cc4ccccc4)N3C2=O)C[C@@H]2c3cccc4[nH]cc(c34)C[C@H]21` [DIHYDROERGOTAMINE], the AC50 in assay [1] is above 30 µM; in assay [5], above 30 µM; in assay [2] it was above 30 µM; in assay [3], above 10 µM; in assay [4], above 30 µM.
Regarding `CNCC[C@H](Oc1cccc2ccccc12)c1cccs1` [DULOXETINE], the AC50 is above 30 µM in assay [1], above 30 µM in assay [5], above 10 µM in assay [3] and above 30 µM in assay [4].
For the compound `C#Cc1cccc(Nc2ncnc3cc(OCCOC)c(OCCOC)cc23)c1` [ERLOTINIB], the AC50 in assay [1] and in assay [2] was above 30 µM throughout.
As for `CC1(C)O[C@@H]2C[C@H]3[C@@H]4C[C@H](F)C5=CC(=O)C=C[C@]5(C)[C@H]4[C@@H](O)C[C@]3(C)[C@]2(C(=O)CO)O1` [FLUNISOLIDE], the AC50 in assay [1] and in assay [2] was above 30 µM throughout.
`CCC(=O)O[C@@H](O[P@](=O)(CCCCc1ccccc1)CC(=O)N1C[C@H](C2CCCCC2)C[C@H]1C(=O)O)C(C)C` [FOSINOPRIL]: the AC50 in assay [3] is above 30 µM.
With `Nc1nc(O)c2ncn(COC(CO)CO)c2n1` [GANCICLOVIR], the AC50 in assay [1], in assay [5], in assay [2], in assay [3] and in assay [4] was above 30 µM each time.
For the compound `C[C@H]1Oc2cc(cnc2N)-c2c(nn(C)c2C#N)CN(C)C(=O)c2ccc(F)cc21` [LORLATINIB], the AC50 in assay [1] and in assay [2] was above 30 µM each time.
Regarding `Cc1cnc(NC(=O)C2=C(O)c3ccccc3S(=O)(=O)N2C)s1` [MELOXICAM], the AC50 in assay [1] was above 30 µM; in assay [5], above 30 µM; in assay [2], above 10 µM; in assay [3] it was above 10 µM; in assay [4], above 30 µM.
As for `CC[C@@H](CO)NC(=O)[C@@H]1C=C2c3cccc4[nH]cc(c34)C[C@H]2N(C)C1` [METHYLERGONOVINE], the AC50 in assay [1], in assay [5], in assay [2], in assay [3] and in assay [4] was above 30 µM each time.
On to `CNCCC=C1c2ccccc2CCc2ccccc21` [NORTRIPTYLINE], for which the AC50 in assay [1] is above 30 µM; in assay [5], above 30 µM; in assay [2], 3.2 µM; in assay [3] it was above 30 µM; in assay [4] it was above 30 µM.
In the case of `CN(C)c1cc(CNCC(C)(C)C)c(O)c2c1C[C@H]1C[C@H]3[C@H](N(C)C)C(O)=C(C(N)=O)C(=O)[C@@]3(O)C(O)=C1C2=O` [OMADACYCLINE], the AC50 in assay [1] is 0.645 µM; in assay [5], above 30 µM; in assay [2], above 30 µM; in assay [3], above 30 µM; in assay [4], above 30 µM.
On to `COc1ccnc(C[S+]([O-])c2nc3ccc(OC(F)F)cc3[nH]2)c1OC` (stereo unspecified) [PANTOPRAZOLE], for which the AC50 in assay [1] is above 30 µM; in assay [5], above 30 µM; in assay [2], above 10 µM; in assay [3], above 10 µM; in assay [4], above 30 µM.
On to `COc1ccc(Cc2nccc3cc(OC)c(OC)cc23)cc1OC` [PAPAVERINE], for which the AC50 in assay [1], in assay [2], in assay [3] and in assay [4] was above 30 µM in each case.
For the compound `CNC(=O)c1cc(Oc2ccc(NC(=O)Nc3ccc(Cl)c(C(F)(F)F)c3)c(F)c2)ccn1` [REGORAFENIB], the AC50 in assay [1] is above 30 µM; in assay [2], 6.33 µM.
In the same order, the values of `CCOc1cc(CC(=O)N[C@@H](CC(C)C)c2ccccc2N2CCCCC2)ccc1C(=O)O` [REPAGLINIDE] are above 30 µM and above 30 µM.
In the same order, the values of `CCCN(CCc1cccs1)[C@H]1CCc2c(O)cccc2C1` [ROTIGOTINE] are above 30 µM and 1.3 µM.
In the same order, the values of `CC[C@H]1OC(=O)[C@H](C)[C@@H](O[C@H]2C[C@@](C)(OC)[C@@H](O)[C@H](C)O2)[C@H](C)[C@@H](O[C@@H]2O[C@H](C)C[C@H](N(C)C)[C@H]2O)[C@](C)(O)C[C@@H](C)/C(=N\OCOCCOC)[C@H](C)[C@@H](O)[C@]1(C)O` [ROXITHROMYCIN] are above 30 µM and above 30 µM.
In the case of `Cn1c(=O)c2[nH]cnc2n(C)c1=O` [THEOPHYLLINE], the AC50 in assay [1] was above 30 µM; in assay [2], above 30 µM; in assay [3], above 10 µM; in assay [4], above 30 µM.
Take `CN1CCN(CCCN2c3ccccc3Sc3ccc(S(=O)(=O)N(C)C)cc32)CC1` [THIOPROPERAZINE]: the AC50 in assay [3] is above 30 µM.
